Patent US9328078B2, “Benzofurazan anti-amyloid compounds and methods” (Treventis Corporation, priority 2012, dated 2016)

Columns and labels:
Aβ40 = Aβ40 (Homo sapiens, UniProt P05067); test: kinetic ThT assay for Aβ aggregation; assay type: biochemical; conditions: for inhibition at 5 µM: 80 h, compound 5 μm, read-out: % inhib Aβ 40 (5 μm); for inhibition at 10 µM: compound 10 μM, read-out: % inhib Aβ 40 10 μM
Procedure: Aβ40 (1.0 mg) was pre-treated in a 1.5 mL microfuge tube with HFIP (1 mL) and sonicated for 20 min to disassemble any pre-formed Aβ aggregates. The HFIP was removed with a stream of argon and the Aβ dissolved in Tris base (5.8 mL, 20 mM, pH˜10). The pH was adjusted to 7.4 with concentrated HCl (˜10 μL) and the solution filtered using a syringe filter (0.2 μm) before being used.
The kinetic ThT assay for AP aggregation is similar to that of Chalifour et al (Chalifour et al, 2003, J. Biol. Chem. 278:34874-81). Briefly, pre-treated Aβ40 or Aβ42 (40 μM in 20 mM Tris, pH 7.4) was diluted with an equal volume of 8 μM Thioflavin T (ThT) in Tris (20 mM, pH 7.4, 300 mM NaCl). Aliquots of Aβ/ThT (200 μL) were added to wells of a black polystyrene 96-well plate, followed by 2 μL of a compound in DMSO (variable concentration), or DMSO alone (controls). Incubations were performed in triplicate and were taken to contain 20 μM Aβ, various concentration of compound in 20 mM Tris, pH 7.4, 150 mM NaCl, 1% DMSO. Plates were covered with clear polystyrene lids and incubated at 37° C. in a Tecan Genios microplate reader.
Fluorescence readings (λex=450 nm, λem=480 nm) were taken every 15 min., after first shaking at high intensity for 15 s and allowing to settle for 10 s before each reading. Active compounds attenuated the increase in fluorescence over time that occurred in controls. In FIGS. 1-7, the time this procedure was performed extended to 80 hours (rightmost part of X-axis), at which point fluorescence increase generally reached an asymptote. Applying a definition of DMSO control at 80 hr as 100% aggregation (0% inhibition) and DMSO control at 0 hr as 0% aggregation (100% inhibition), a % inhibition score where higher is better can be calculated for a given concentration of compound. By repeating this procedure over several concentrations, a […] (IC50) can be measured, as is given in the table below for some compounds.
Data is summarized in the table below; numbers given in parenthesis are the values in that particular experiment for compound ID 1027, given as the first entry in this table for comparison.

Biotin-Aβ(1-42) = biological target: T1, Biotin-Aβ(1-42) (Homo sapiens, UniProt P05067); test: Biotin-Aβ(1-42) oligomeric assay; assay type: biochemical; conditions: inhibition of oligomer formation at 25 uM, 30 minutes; higher = more inhibition
T1 construct: Biotin-Aβ(1-42) (AnaSpec) at 0.2 mg/ml in hexafluoroisopropanol (HFIP); purchased AnaSpec
T1 sequence (P05067 672-713 limits assumed): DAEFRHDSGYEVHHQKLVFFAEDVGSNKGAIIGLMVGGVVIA
Procedure: The following assay was adapted from H. LeVine III. Biotin-avidin interaction-based screening assay for Alzheimer's β-peptide oligomer inhibitors, Anal. Biochem. 356 (2006) 265-272 and A. Frey, B. Meckelein, D. Externest, M. A. Schmidt A stable and highly sensitive 3,3′,5,5′-tetramethylbenzidine-based substrate reagent for enzyme-linked immunosorbent assays, J. Immunol. Methods 233 (2000) 47-56.
Biotin-Aβ(1-42) (AnaSpec) at 0.2 mg/ml in hexafluoroisopropanol (HFIP) was further diluted in 20 volumes of HFIP, which was then evaporated under a stream of argon. 20 volumes of trifluoroacetic acid was added and let rest for 10 minutes, then evaporated under a stream of argon. Another 20 volumes of HFIP was added and evaporated under a stream of argon. Biotin-Aβ(1-42) was brought to a final concentration of 2.3 mg/ml in DMSO. Oligomer formation was initiated in 96 well round bottom polypropylene plates by diluting the prepared biotin-Aβ(1-42) 50× in 20 mM sodium phosphate pH 7.5, 150 mM NaCl in the presence of vehicle or compound. Oligomer formation was halted after 30 minutes by the addition of 50 μl/well of 0.3% Tween-20.
96 well Costar high-binding microplates were coated overnight at +4° C. with 50 μl/well of 1 ug/ml NeutrAvidin (ThermoScientific) in 10 mM sodium phosphate, pH 7.5. Plates were blocked for 2 hours at room temperature with 200 μl/well 20 mM sodium phosphate pH 7.5, 150 mM NaCl, 0.1% Tween-20. The oligomer preparation was transferred at 50 μl/well to the blocked plate and incubated for 2 hours at room temperature with shaking at 150 rpm. The plate was then washed three times with 200 μl/well 20 mM tris-HCl pH 7.5, 34 mM NaCl, 0.1% Tween-20 (TBS-T). Streptavidin-HRP (Rockland Immunochemicals) [1:20,000] in 20 mM sodium phosphate pH 7.5, 150 mM NaCl, 0.1% Tween-20 was added at 50 μl/well and incubated in the dark at room temperature for 1 hour with shaking at 150 rpm. The plate was washed three times with 200 μl/well of TBS-T. Tetramethylbenzidine/H2O2 substrate was prepared by mixing 250 μl of 41 mM 3,3′,5,5′-tetramethylbenzidine, 8.2 mM tetrabutylammonium borohydride in dimethylacetamide with 10 ml of 205 mM K3 citrate pH 4.0, 3.075 mM H2O2 and incubating for 15 minutes at room temperature. Prepared substrate solution was added at 100 μl/well and the reaction was allowed to proceed for 15 minutes, after which it was terminated by the addition of 100 μl/well of 1% H2SO4. The OD450nm was determined using a Tecan Infinite F200 plate reader.

[1] = DMSO control at 80 hr = 0% inhibition, parenthesis = compound 1027

Chain of Aβ40 (P05067 672-711 limits assumed, species assumed): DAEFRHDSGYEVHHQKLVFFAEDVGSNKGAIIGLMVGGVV

| inhibition at 5 µM (Aβ40; [1]) | inhibition at 10 µM (Aβ40; [1]) | inhibition at 25 µM (Biotin-Aβ(1-42)) | IC50 (Aβ40; ThT fluorescence, 20 μM Aβ, 37° C., up to 80 hr, parenthesis = compound 1027 in same experiment, read-out: IC50 A β 1-40) | inhibition at 20 µM (Aβ40; compound 20 μM, DMSO control at 80 hr = 0% inhibition, parenthesis = compound 1027, read-out: % inhib. A β 40 (20 μM)) | SMILES |
| --- | --- | --- | --- | --- | --- |
| 47% | 62% | -32% |  |  | CN(Cc1nccs1)c1cc(-c2cccc(C(O)C(F)(F)F)c2)cc2nonc12 (stereo not drawn) [TRV-1459] |
| 51% | 65% | 82% |  |  | OC(c1cccc(-c2cc(N3CC(CN4CCCC4)C3)c3nonc3c2)c1)C(F)(F)F (stereo not drawn) [TRV-1457] |
| 36% | 64% | 3% |  |  | OC(c1cccc(-c2cc(N3CC(N4CCCC4)C3)c3nonc3c2)c1)C(F)(F)F (stereo not drawn) [TRV-1456] |
| 54% | 73% | 4% |  |  | CC(O)C1CN(c2cc(-c3cccc(C(O)C(F)(F)F)c3)cc3nonc23)C1 (stereo not drawn) [TRV-1451] |
| 53% | 48% | 23% |  |  | OC(c1cccc(-c2cc(N3CC(N4CCOCC4)C3)c3nonc3c2)c1)C(F)(F)F (stereo not drawn) [TRV-1462] |

More lines, now with the values behind:

| SMILES | inhibition at 5 µM (Aβ40; [1]) | inhibition at 10 µM (Aβ40; [1]) | inhibition at 25 µM (Biotin-Aβ(1-42)) | IC50 (Aβ40; ThT fluorescence, 20 μM Aβ, 37° C., up to 80 hr, parenthesis = compound 1027 in same experiment, read-out: IC50 A β 1-40) | inhibition at 20 µM (Aβ40; compound 20 μM, DMSO control at 80 hr = 0% inhibition, parenthesis = compound 1027, read-out: % inhib. A β 40 (20 μM)) |
| --- | --- | --- | --- | --- | --- |
| COC(C)C1CN(c2cc(-c3cccc(C(O)C(F)(F)F)c3)cc3nonc23)C1 (stereo not drawn) [TRV-1461] | 58.9% | 71.7% | -28% |  |  |
| CC(C)(O)[C@@H]1CCCN1c1cc(-c2cccc(C(O)C(F)(F)F)c2)cc2nonc12 (stereo partly drawn) [TRV-1449] | 55% | 72% | -3% |  |  |
| CC(C)(O)C1CN(c2cc(-c3cccc(C(O)C(F)(F)F)c3)cc3nonc23)C1 (stereo not drawn) [TRV-1435] | 52% | 66% | 29% |  |  |
| OC(c1cccc(-c2cc(N3CC(CN4CCOCC4)C3)c3nonc3c2)c1)C(F)(F)F (stereo not drawn) [TRV-1455] | 41% | 60% | 29% |  |  |
| OC1CCN(c2cc(-c3cccc(C(O)C(F)(F)F)c3)cc3nonc23)C1 (stereo not drawn) [TRV-1448] | 45% | 55% | -23% |  |  |
| OC(c1cccc(-c2cc(N3CCC[C@H]3CN3CCCC3)c3nonc3c2)c1)C(F)(F)F (stereo partly drawn) [TRV-1452] | 50% | 63% | 76% |  |  |
| CN(Cc1ccc(F)cc1)c1cc(-c2cccc(C(=O)N3CCCC3)c2)cc2nonc12 [TRV-1460] | 36% | 44% | 10% |  |  |
| OC[C@@H]1CCCN1c1cc(-c2cccc(C(O)C(F)(F)F)c2)cc2nonc12 (stereo partly drawn) [TRV-1450] | 57% | 79% | 32% |  |  |
| CN(C)CCCN(C)c1cc(-c2cccc(C(O)C(F)(F)F)c2)cc2nonc12 (stereo not drawn) [TRV-1465] |  |  | 69% |  |  |
| CN(C)C1CCN(c2cc(-c3cccc(C(O)C(F)(F)F)c3)cc3nonc23)CC1 (stereo not drawn) [TRV-1466] | 36.9% | 49% | 72% |  |  |
| OC(c1cccc(-c2cc(N3CCC(N4CCCC4)CC3)c3nonc3c2)c1)C(F)(F)F (stereo not drawn) [TRV-1387] | 40% | 52% | 75% | 5.76 µM | 78% |
